Key:
[1] = In vitro stability of [18F]-1 in 1×PBS by radio-HPLC; format: physicochemical; settings: incubation time 3 hours
Protocol: (§1) The stability of [^18F]-1 was first investigated in phosphate buffer solution (1×PBS). […] The stability of [^18F]-1 was further evaluated in a murine model. The probe [^18F]-1 (0.1 mCi) was injected into female nude mice and static microPET scans were obtained at 3 hours after the injection.
After HPLC purification, [^18F]-1 was re-injected into HPLC for a radio profile standard. Then, the probe was added with 10×PBS to reconstruct the solution to IX PBS and 0.1 N NaOH to adjust pH to 7, respectively. After 1 hour and 3 hours incubation, a fraction of [^18F]-1 was injected into HPLC. The radio purity was calculated based on the integration of the product peak and other minor peaks.

[2] = MicroPET/CT imaging, in vivo stability in nude mice; settings: for free [18F]-fluoride signal / release in vivo: murine model, up to 3 hours post-injection
Protocol: as §1
MicroPET imaging were acquired at 3 h post injection. For PET image acquiring, a female nude mouse was injected with 0.1 mCi of [^18F]-1 via the tail vein. At 3 hour post injection, the mouse was anesthetized using isoflurane (2% in oxygen), then placed into imaging chambers equipped with a heated coil to maintain body temperature and gas anesthesia. The static microPET acquisitions were then achieved and reconstructed for analysis.

[3] = pH 7.5

Row | Compound | radiochemical purity after incubation [1] [%] | localization in microPET/CT images ([2]; female nude mice, 0.1 mCi via tail vein, static scan 3 h after injection) | bone uptake ([2]; female nude mice, 0.1 mCi, 3 h post-injection) | route of clearance ([2]; female nude mice, 0.1 mCi, microPET/CT 3 h after injection) | free [18F]-fluoride signal / release in vivo [2] | free [18F]-fluoride signal / release in vivo ([2]; listed as 18F—PFS-carbene) | hydrolytic stability (in words) [3] | pseudo-first order rate constant (kobs) of hydrolysis [3] [min⁻¹] | free fluoride signal / release of free fluoride [3] | free [18F]-fluoride signal / release in vivo ([2]; listed as IMe-PF5)
1 | Cn1cc[n+](C)c1[P-](F)(F)(F)(F)F [[^18F]-1] | > 98 | obvious localization in the bladder | No bone uptake was observed | cleared through the urinary track | insignificant | not observed |  |  |  | 
2 | Cn1cc[n+](C)c1[P-](F)(F)(F)(F)c1ccccc1 [Compound 2, (NHC)PF4Ph] |  |  |  |  |  |  | highly water stable | 2.3e-05 |  | 
3 | Cn1cc[n+](C)c1[P-](F)(F)(F)(F)F [Compound 1, IMe-PF5] |  |  |  |  |  |  | highly water stable |  | not observed | not observed

Source: US20180340001A1, “Probes for 18F Positron Emission Tomography Imaging” (The Texas A&M University System, priority 2017, published 2018)
